Assay results published in patent publication US20260262643A1, “HERBICIDAL BENZOXAZINES” (FMC CORPORATION, priority 2022, published 2026).

Legend:
kochia [1] = experiment: Test A preemergence; format: in vivo, Bassia scoparia
How it was run: (§1)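 Visual injury ratings on a 0–100 scale (100 = complete control) versus untreated controls, taken 10 days after treatment in greenhouse. Preemergence: directed soil spray onto seeded loam/sand. Postemergence: foliar application at one- to two-leaf stage, plants 2–10 cm. Formulation: non-phytotoxic solvent plus surfactant.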

pigweed, palmer [2] = experiment: Test A preemergence; format: in vivo, Amaranthus palmeri
How it was run: as §1

blackgrass [3] = experiment: Test A preemergence; format: in vivo, Alopecurus myosuroides
How it was run: as §1

foxtail, giant [4] = experiment: Test A preemergence; format: in vivo, Setaria faberi
How it was run: as §1

barnyardgrass = experiment: Test B flooded paddy test; format: in vivo, Echinochloa crus-galli; conditions: 250 g ai/ha, Flood, 13 days, 0 to 100 scale (0 no effect, 100 complete control)
How it was run: (§2)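 2-leaf stage; pots flooded 3 cm over soil; compound dosed into paddy water; depth kept constant. Greenhouse, 13 d. Visual rating vs controls, 0 (no effect)–100 (complete control). Dash = no result.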

pigweed, palmer [5] = experiment: Test A postemergence; format: in vivo, Amaranthus palmeri
How it was run: as §1

sedge, umbrella = experiment: Test B flooded paddy test; format: in vivo, Cyperus difformis; conditions: 250 g ai/ha, Flood, 13 days, 0 to 100 scale (0 no effect, 100 complete control)
How it was run: as §2

wheat [6] = experiment: Test A postemergence; format: in vivo, Triticum aestivum
How it was run: as §1

ryegrass, Italian [7] = experiment: Test A preemergence; format: in vivo, Lolium multiflorum
How it was run: as §1

horseweed = experiment: Test A postemergence; format: in vivo, Erigeron canadensis
How it was run: as §1

galium = experiment: Test A postemergence; format: in vivo, Galium aparine
How it was run: as §1

foxtail, giant [8] = experiment: Test A postemergence; format: in vivo, Setaria faberi
How it was run: as §1

corn [9] = experiment: Test A preemergence; format: in vivo, Zea mays
How it was run: as §1

corn [10] = experiment: Test A postemergence; format: in vivo, Zea mays; conditions: for Plant response rating, Corn: 500 g ai/ha
How it was run: as §1

soybean [11] = experiment: Test A postemergence; format: in vivo, Glycine max; conditions: for Plant response rating, Soybean: 500 g ai/ha
How it was run: as §1

ryegrass, Italian [12] = experiment: Test A postemergence; format: in vivo, Lolium multiflorum
How it was run: as §1

goosegrass [13] = experiment: Test A preemergence; format: in vivo, Eleusine indica
How it was run: as §1

goosegrass [14] = experiment: Test A postemergence; format: in vivo, Eleusine indica
How it was run: as §1

soybean [15] = experiment: Test A preemergence; format: in vivo, Glycine max
How it was run: as §1

blackgrass [16] = experiment: Test A postemergence; format: in vivo, Alopecurus myosuroides
How it was run: as §1

wheat [17] = experiment: Test A preemergence; format: in vivo, Triticum aestivum
How it was run: as §1

oat, wild [18] = experiment: Test A preemergence; format: in vivo, Avena fatua
How it was run: as §1

ducksalad = experiment: Test B flooded paddy test; format: in vivo, Heteranthera limosa; conditions: 250 g ai/ha, Flood, 13 days, 0 to 100 scale (0 no effect, 100 complete control)
How it was run: as §2

rice = experiment: Test B flooded paddy test; format: in vivo, Oryza sativa; conditions: 250 g ai/ha, Flood, 13 days, 0 to 100 scale (0 no effect, 100 complete control)
How it was run: as §2

ragweed [19] = experiment: Test A preemergence; format: in vivo, Ambrosia artemisiifolia
How it was run: as §1

ragweed [20] = experiment: Test A postemergence; format: in vivo, Ambrosia artemisiifolia
How it was run: as §1

oat, wild [21] = experiment: Test A postemergence; format: in vivo, Avena fatua
How it was run: as §1

kochia [22] = experiment: Test A postemergence; format: in vivo, Bassia scoparia
How it was run: as §1

[23] = 125 g ai/ha, visual injury after 10 days, 0 to 100 scale, 0 is no effect, 100 is complete control
[24] = 500 g ai/ha, 0 to 100 scale (0 no effect, 100 complete control), 10 days
[25] = 125 g ai/ha, postemergence, 10 days, visual injury, 0 to 100 scale (0 no effect, 100 complete control)
[26] = 500 g ai/ha, Postemergence, 0 to 100 scale
[27] = 125 g ai/ha, postemergence, 10 days, 0 to 100 scale, 0 no effect, 100 complete control
[28] = 500 g ai/ha, postemergence, 10 days, visual injury, 0 to 100 scale (0 no effect, 100 complete control)
[29] = postemergence, 10 days, visual injury, 0 to 100 scale (0 no effect, 100 complete control)

With `O=C(c1cccc(-n2cncn2)c1)N1CC(C(F)(F)F)Oc2c(Cl)cccc21` (stereo not shown) [Compound 59] the “Plant response rating, Kochia” value (kochia [1]; [23]) was 0, the “Plant response rating, Kochia” value (kochia [1]; [24]) was 90 and the “Plant response rating, Pigweed, Palmer” value (pigweed, palmer [2]; [23]) was 10. The “Plant response rating, Pigweed, Palmer” value (pigweed, palmer [2]; [24]) was 100, the “Plant response rating, Blackgrass” value (blackgrass [3]; [23]) was 0 and the “Plant response rating, Blackgrass” value (blackgrass [3]; [24]) was 60. The “Plant response rating, Foxtail, Giant” value (foxtail, giant [4]; [23]) was 90, the “Plant response rating, Foxtail, Giant” value (foxtail, giant [4]; [24]) was 100 and the “Plant response rating, Barnyardgrass” value (barnyardgrass) was 0. The “Plant response rating, Pigweed, Palmer” value (pigweed, palmer [5]; [25]) was 20, the “Plant response rating, Pigweed, Palmer” value (pigweed, palmer [5]; [26]) was 50 and the “Plant response rating, Sedge, Umbrella” value (sedge, umbrella) was 0. The “Plant response rating, Wheat” value (wheat [6]; [25]) was 10, the “Plant response rating, Wheat” value (wheat [6]; [26]) was 40 and the “Plant response rating, Ryegrass, Italian” value (ryegrass, Italian [7]; [23]) was 90. For the same compound, the “Plant response rating, Ryegrass, Italian” value (ryegrass, Italian [7]; [24]) was 100, the “Plant response rating, Horseweed” value (horseweed; [25]) was 0 and the “Plant response rating, Horseweed” value (horseweed; [26]) was 0. The “Plant response rating, Galium” value (galium; [25]) was 90, the “Plant response rating, Galium” value (galium; [26]) was 100 and the “Plant response rating, Foxtail, Giant” value (foxtail, giant [8]; [25]) was 40. The “Plant response rating, Foxtail, Giant” value (foxtail, giant [8]; [26]) was 90, the “Plant response rating, Corn” value (corn [9]; [24]) was 20 and the “Plant response rating, Corn” value (corn [10]; Postemergence, 0 to 100 scale) was 20. The “Plant response rating, Soybean” value (soybean [11]; Postemergence, 0 to 100 scale) was 100, the “Plant response rating, Ryegrass, Italian” value (ryegrass, Italian [12]; [25]) was 0 and the “Plant response rating, Ryegrass, Italian” value (ryegrass, Italian [12]; [26]) was 60. The “Plant response rating, Goosegrass” value (goosegrass [13]; [23]) was 90, the “Plant response rating, Goosegrass” value (goosegrass [13]; [24]) was 100 and the “Plant response rating, Goosegrass” value (goosegrass [14]; [25]) was 20. For the same compound, the “Plant response rating, Goosegrass” value (goosegrass [14]; [26]) was 50, the “Plant response rating, Soybean” value (soybean [15]; [24]) was 90 and the “Plant response rating, Blackgrass” value (blackgrass [16]; [25]) was 20. For the same compound, the “Plant response rating, Blackgrass” value (blackgrass [16]; [26]) was 80, the “Plant response rating, Wheat” value (wheat [17]; [23]) was 0 and the “Plant response rating, Wheat” value (wheat [17]; [24]) was 50. The “Plant response rating, Oat, Wild” value (oat, wild [18]; [23]) was 20, the “Plant response rating, Oat, Wild” value (oat, wild [18]; [24]) was 90 and the “Plant response rating, Ducksalad” value (ducksalad) was 0. The “Plant response rating, Rice” value (rice) was 0, the “Plant response rating, Ragweed” value (ragweed [19]; [23]) was 0 and the “Plant response rating, Ragweed” value (ragweed [19]; [24]) was 0. The “Plant response rating, Ragweed” value (ragweed [20]; [25]) was 40, the “Plant response rating, Ragweed” value (ragweed [20]; [26]) was 40 and the “Plant response rating, Oat, Wild” value (oat, wild [21]; [25]) was 10. The “Plant response rating, Oat, Wild” value (oat, wild [21]; [26]) was 50, the “Plant response rating, Kochia” value (kochia [22]; [25]) was 10 and the “Plant response rating, Kochia” value (kochia [22]; [26]) was 70.
For `CCc1ccc(-n2cnc(C3CCC3)n2)cc1C(=O)N1C[C@H](C)Oc2c(Cl)cccc21` [Compound 104], the “Plant response rating, Kochia” value (kochia [1]; [23]) was 50, the “Plant response rating, Kochia” value (kochia [1]; [24]) was 100 and the “Plant response rating, Pigweed, Palmer” value (pigweed, palmer [2]; [23]) was 90. The “Plant response rating, Pigweed, Palmer” value (pigweed, palmer [2]; [24]) was 100, the “Plant response rating, Blackgrass” value (blackgrass [3]; [23]) was 30 and the “Plant response rating, Blackgrass” value (blackgrass [3]; [24]) was 40. The “Plant response rating, Foxtail, Giant” value (foxtail, giant [4]; [23]) was 100, the “Plant response rating, Foxtail, Giant” value (foxtail, giant [4]; [24]) was 100 and the “Plant response rating, Barnyardgrass” value (barnyardgrass) was 60. For the same compound, the “Pigweed, Palmer plant response rating” value (pigweed, palmer [5]; [27]) was 80, the “Plant response rating, Pigweed, Palmer” value (pigweed, palmer [5]; [28]) was 100 and the “Plant response rating, Sedge, Umbrella” value (sedge, umbrella) was 98. The “Wheat plant response rating” value (wheat [6]; [27]) was 10, the “Plant response rating, Wheat” value (wheat [6]; [28]) was 10 and the “Plant response rating, Ryegrass, Italian” value (ryegrass, Italian [7]; [23]) was 50. The “Plant response rating, Ryegrass, Italian” value (ryegrass, Italian [7]; [24]) was 90, the “Horseweed plant response rating” value (horseweed; [27]) was 0 and the “Plant response rating, Horseweed” value (horseweed; [28]) was 0. The “Galium plant response rating” value (galium; [27]) was 60, the “Plant response rating, Galium” value (galium; [28]) was 100 and the “Foxtail, Giant plant response rating” value (foxtail, giant [8]; [27]) was 90. The “Plant response rating, Foxtail, Giant” value (foxtail, giant [8]; [28]) was 90, the “Plant response rating, Corn” value (corn [9]; [23]) was 0 and the “Plant response rating, Corn” value (corn [9]; [24]) was 0. The “Corn plant response rating” value (corn [10]; [27]) was 40, the “Plant response rating, Corn” value (corn [10]; [29]) was 80 and the “Soybean plant response rating” value (soybean [11]; [27]) was 100. For the same compound, the “Plant response rating, Soybean” value (soybean [11]; [29]) was 100, the “Ryegrass, Italian plant response rating” value (ryegrass, Italian [12]; [27]) was 30 and the “Plant response rating, Ryegrass, Italian” value (ryegrass, Italian [12]; [28]) was 60. For the same compound, the “Plant response rating, Goosegrass” value (goosegrass [13]; [23]) was 100, the “Plant response rating, Goosegrass” value (goosegrass [13]; [24]) was 100 and the “Goosegrass plant response rating” value (goosegrass [14]; [27]) was 50. For the same compound, the “Plant response rating, Goosegrass” value (goosegrass [14]; [28]) was 80, the “Plant response rating, Soybean” value (soybean [15]; [23]) was 60 and the “Plant response rating, Soybean” value (soybean [15]; [24]) was 90. The “Blackgrass plant response rating” value (blackgrass [16]; [27]) was 0, the “Plant response rating, Blackgrass” value (blackgrass [16]; [28]) was 50 and the “Plant response rating, Wheat” value (wheat [17]; [23]) was 0. The “Plant response rating, Wheat” value (wheat [17]; [24]) was 0, the “Plant response rating, Oat, Wild” value (oat, wild [18]; [23]) was 0 and the “Plant response rating, Oat, Wild” value (oat, wild [18]; [24]) was 70. The “Plant response rating, Ducksalad” value (ducksalad) was 25, the “Plant response rating, Rice” value (rice) was 20 and the “Plant response rating, Ragweed” value (ragweed [19]; [23]) was 0. For the same compound, the “Plant response rating, Ragweed” value (ragweed [19]; [24]) was 40, the “Ragweed plant response rating” value (ragweed [20]; [27]) was 0 and the “Plant response rating, Ragweed” value (ragweed [20]; [28]) was 30. The “Oat, Wild plant response rating” value (oat, wild [21]; [27]) was 20, the “Plant response rating, Oat, Wild” value (oat, wild [21]; [28]) was 40 and the “Kochia plant response rating” value (kochia [22]; [27]) was 80. The “Plant response rating, Kochia” value (kochia [22]; [28]) was 100.
